# Values joined by “and” are separate entries in the source; they are usually repeats but may differ in a detail not shown here. Equal values may be shown once.
# Columns and labels:
# [1] = Pharmacokinetics in whole blood, CD-1 mice; conditions: male, CD-1, mouse, in vivo, blood
# [2] = Pharmacokinetics in whole blood, Sprague-Dawley rats; conditions: male Sprague-Dawley rats, blood, BQL <1.26 nM
# Protocol: The whole blood samples (0.5 mL) were collected into syringes that were prefilled with 2.5 mL of ice-cold 0.1% formic acid in acetonitrile. The volume ratio of the whole blood to 0.1% formic acid in acetonitrile was 1/5 (v/v). Samples were frozen (-70°C) until analyzed by LC-MS/MS.
# Standard curves and quality control (QC) samples were prepared fresh on the day of analysis by serial dilution of the standard mixture in quenched whole blood (1 part of blood to 5 parts of 0.1% formic acid in acetonitrile) and centrifuged. […] The frozen study samples were thawed in an ice/water bath and centrifuged. Supernatant (50 μL) from standards, QC samples, and study samples was transferred to a 96-well plate and dried completely under nitrogen. The dried residues were reconstituted with 100 μL of 0.1% formic acid in water containing internal standard (5 ng/mL of ^15N/^13C3-RE-024-02) and analyzed by LC-MS/MS.
# LC-MS/MS analysis for blood pharmacokinetic samples: Samples were analyzed using an Agilent 1100 binary pump (Agilent Technologies, Santa Clara, CA, USA), connected to an AB Sciex API 6500 mass spectrometer (SCIEX, Framingham, MA, USA). An electrospray ionization source was used, scanning in the positive mode. […] The chromatography column was a Varian Metasil AQ 120–5 C18 column, 5 μm, 50 x 2.00 mm (Part No. A0530050X020) at ambient temperature, with a 0.5 mL/min flow rate and a 20 μL injection volume. Mobile phase (A) consisted of 0.1% formic acid in water; while mobile phase (B) consisted of 0.1% formic acid in acetonitrile:water (9:1, v/v).
# Quantitation of in vivo samples: Peak areas were integrated using Analyst software (AB Sciex, Concord, Ontario, Canada). […] Calibration standards (at a minimum 7 per curve) were fit by linear regression with (1/x^2) weighting. QC samples were used (triplicate) at 3 concentrations for all tandem mass spectrometry (MS/MS) runs.
# Pharmacokinetic calculations: PK analysis was performed using Phoenix WinNonlin®, Build 6.3.0.395 (Certara, Princeton, NJ, USA) using a non-compartmental model (PO dose = model 200 for extravascular dosing). […] Post-dose concentrations below the limit of quantitation (BLQ) were omitted from calculation.
# [3] = Metabolic stability in monkey liver microsomes; assay type: in vitro ADME; conditions: pooled liver microsomes
# Protocol: Metabolic stability in blood and liver microsomes: Fosmetpantotenate or its individual diastereomers (5 μM, n = 2, 37°C) were incubated in mouse, rat, cynomolgus monkey, and human whole blood. Samples (50 μL) were taken at 0, 5, 15, 30, and 60 min. Incubations of fosmetpantotenate or its individual diastereomers (1 μM, n = 2, 37°C) in pooled liver microsomes (0.25 mg protein/mL in 0.1 M phosphate buffer pH 7.4) were initiated with the addition of nicotinamide adenine dinucleotide phosphate (NADPH; 1 mM). Aliquots (100 μL) were obtained at 0, 5, 10, 20, and 40 min and added to 150 μL of 0.1% formic acid in acetonitrile-containing carbamazepine (0.5 μM) as an analytical internal standard, centrifuged, and the supernatants analyzed by LC-MS/MS.
# Bioanalysis for determinations of analyte stability: Samples were analyzed using a benchtop tandem quadrupole detector (TQD) mass spectrometer (Waters Ltd, Centennial Park, Hertfordshire). […] Suitable retention and peak shape with separation of the 2 diastereomers were obtained. The chromatography column was a Phenomenex-Kinetex XB C18 (2.10 x 50 mm; 2.6 μm), with a 0.7 mL/min flow rate and a 2 μL injection volume. […]
# The percent of compound remaining was determined from the MRM area response in each sample relative to that in the T = 0 samples (normalized for internal standard). […]
# [4] = 300 mg/kg, Mean Conc., fosmetpantotenate 300 mg/kg PO
# [5] = 700 mg/kg, Fosmetpantotenate Conc., male CD-1 mice, fosmetpantotenate 700 mg/kg oral, individual animals, BQL <1.02 nM
# [6] = 700 mg/kg, Fosmetpantotenate Mean Conc., male CD-1 mice, fosmetpantotenate 700 mg/kg oral, mean, BQL <1.02 nM
compound,measurement,setting,value
COC(=O)CCNC(=O)[C@H](O)C(C)(C)COP(=O)(N[C@@H](C)C(=O)OC)Oc1ccccc1 (mixture of isomers) [Fosmetpantotenate],concentration at 4 h,"[1]; 300 mg/kg, Conc., fosmetpantotenate 300 mg/kg PO, individual animals",1.03 nM
same,concentration at 0.033 h,[1]; [4],30.2 nM
same,concentration at 0.083 h,[1]; [4],14.4 nM
same,concentration at 0.167 h,[1]; [4],2.3 nM
same,concentration at 0.333 h,[1]; [4],1.22 nM
same,concentration at 0.5 h,[1]; [4],1.36 nM
same,concentration at 1 h,[1]; [4],1.14 nM
same,concentration at 4 h,[1]; [4],1.03 nM
same,concentration at 0.333 h,[1]; [5],24.4 nM
same,concentration at 4 h,[1]; [5],1.14 nM
same,concentration at 0.033 h,[1]; [6],135 nM
same,concentration at 0.083 h,[1]; [6],16.2 nM
same,concentration at 0.167 h,[1]; [6],307 nM
same,concentration at 0.333 h,[1]; [6],23.6 nM
same,concentration at 0.5 h,[1]; [6],78.7 nM
same,concentration at 1 h,[1]; [6],51.6 nM
same,concentration at 2 h,"[1]; 700 mg/kg, Fosmetpantotenate Mean Conc., male CD-1 mice, fosmetpantotenate 700 mg/kg oral, 2 hr, mean, BQL <1.02 nM",5.11 nM
same,concentration at 4 h,[1]; [6],1.14 nM
same,Fosmetpantotenate Conc.,"[2]; fosmetpantotenate 100 mg/kg oral, 0.033 hr, individual animals",BQL
same,Fosmetpantotenate Mean Conc.,"[2]; fosmetpantotenate 100 mg/kg oral, 0.033 hr, mean",BQL
same,Fosmetpantotenate Conc.,"[2]; fosmetpantotenate 100 mg/kg oral, 0.083 hr, individual animals",BQL
same,Fosmetpantotenate Mean Conc.,"[2]; fosmetpantotenate 100 mg/kg oral, 0.083 hr, mean",BQL
same,Fosmetpantotenate Conc.,"[2]; fosmetpantotenate 100 mg/kg oral, 0.167 hr, individual animals",BQL
same,Fosmetpantotenate Mean Conc.,"[2]; fosmetpantotenate 100 mg/kg oral, 0.167 hr, mean",BQL
same,Fosmetpantotenate Conc.,"[2]; fosmetpantotenate 100 mg/kg oral, 0.33 hr, individual animals",BQL
same,Fosmetpantotenate Mean Conc.,"[2]; fosmetpantotenate 100 mg/kg oral, 0.33 hr, mean",BQL
same,Fosmetpantotenate Conc.,"[2]; fosmetpantotenate 100 mg/kg oral, 0.5 hr, individual animals",BQL
same,Fosmetpantotenate Conc.,"[2]; fosmetpantotenate 100 mg/kg oral, 1 hr, individual animals",BQL
same,Fosmetpantotenate Mean Conc.,"[2]; fosmetpantotenate 100 mg/kg oral, 1 hr, mean",BQL
same,Fosmetpantotenate Conc.,"[2]; fosmetpantotenate 100 mg/kg oral, 2 hr, individual animals",BQL
same,Fosmetpantotenate Mean Conc.,"[2]; fosmetpantotenate 100 mg/kg oral, 2 hr, mean",BQL
same,Fosmetpantotenate Conc.,"[2]; fosmetpantotenate 100 mg/kg oral, 4 hr, individual animals",BQL
same,Fosmetpantotenate Conc.,"[2]; fosmetpantotenate 100 mg/kg oral, 8 hr, individual animals",BQL
same,Fosmetpantotenate Mean Conc.,"[2]; fosmetpantotenate 100 mg/kg oral, 8 hr, mean",BQL
same,Fosmetpantotenate Conc.,"[2]; fosmetpantotenate 300 mg/kg oral, 0.033 hr, individual animals",4.15 nM and BQL
same,Fosmetpantotenate Conc.,"[2]; fosmetpantotenate 300 mg/kg oral, 0.083 hr, individual animals",BQL
same,Fosmetpantotenate Mean Conc.,"[2]; fosmetpantotenate 300 mg/kg oral, 0.083 hr, mean",BQL
same,Fosmetpantotenate Conc.,"[2]; fosmetpantotenate 300 mg/kg oral, 0.167 hr, individual animals",8.83 nM and 22.89 nM and 22.51 nM
same,Fosmetpantotenate Conc.,"[2]; fosmetpantotenate 300 mg/kg oral, 0.33 hr, individual animals",BQL and 64.88 nM and 7.67 nM
same,Fosmetpantotenate Conc.,"[2]; fosmetpantotenate 300 mg/kg oral, 0.5 hr, individual animals",2.28 nM and BQL and 577.94 nM
same,Fosmetpantotenate Conc.,"[2]; fosmetpantotenate 300 mg/kg oral, 1 hr, individual animals",BQL
same,Fosmetpantotenate Conc.,"[2]; fosmetpantotenate 300 mg/kg oral, 2 hr, individual animals",BQL
same,Fosmetpantotenate Conc.,"[2]; fosmetpantotenate 300 mg/kg oral, 4 hr, individual animals",BQL
same,Fosmetpantotenate Conc.,"[2]; fosmetpantotenate 300 mg/kg oral, 8 hr, individual animals",BQL
same,Fosmetpantotenate Mean Conc.,"[2]; fosmetpantotenate 300 mg/kg oral, 8 hr, mean",BQL
same,Fosmetpantotenate Conc.,"[2]; fosmetpantotenate 700 mg/kg oral, 0.033 hr, individual animals",2149.90(a) nM and BQL and 114.07 nM
same,Fosmetpantotenate Conc.,"[2]; fosmetpantotenate 700 mg/kg oral, 0.083 hr, individual animals",518.51 nM and BQL and 1.62 nM
same,Fosmetpantotenate Conc.,"[2]; fosmetpantotenate 700 mg/kg oral, 0.167 hr, individual animals",28.96 nM and 23269.54(a) nM and 247.87 nM
same,Fosmetpantotenate Conc.,"[2]; fosmetpantotenate 700 mg/kg oral, 0.33 hr, individual animals",2541.94 nM and 1277.3 nM and 54 nM
same,Fosmetpantotenate Conc.,"[2]; fosmetpantotenate 700 mg/kg oral, 0.5 hr, individual animals",509.65 nM and 72.84 nM and 84.61 nM
same,Fosmetpantotenate Conc.,"[2]; fosmetpantotenate 700 mg/kg oral, 1 hr, individual animals",73.35 nM and 63.86 nM and 214.99 nM
same,Fosmetpantotenate Conc.,"[2]; fosmetpantotenate 700 mg/kg oral, 2 hr, individual animals",BQL and 1035.75 nM
same,Fosmetpantotenate Conc.,"[2]; fosmetpantotenate 700 mg/kg oral, 4 hr, individual animals",419.86 nM and BQL and 32.12 nM
same,Fosmetpantotenate Conc.,"[2]; fosmetpantotenate 700 mg/kg oral, 8 hr, individual animals",BQL
same,Fosmetpantotenate Mean Conc.,"[2]; fosmetpantotenate 700 mg/kg oral, 8 hr, mean",BQL
same,concentration at 0.5 h,"[2]; male, Sprague-Dawley, rat, in vivo, 100 mg/kg, Fosmetpantotenate Conc., fosmetpantotenate 100 mg/kg oral, 0.5 hr, individual animals",3.31 nM
same,concentration at 4 h,"[2]; male, Sprague-Dawley, rat, in vivo, 100 mg/kg, Fosmetpantotenate Conc., fosmetpantotenate 100 mg/kg oral, 4 hr, individual animals",2.04 nM
same,concentration at 0.5 h,"[2]; male, Sprague-Dawley, rat, in vivo, 100 mg/kg, Fosmetpantotenate Mean Conc., fosmetpantotenate 100 mg/kg oral, 0.5 hr, mean",3.31 nM
same,concentration at 4 h,"[2]; male, Sprague-Dawley, rat, in vivo, 100 mg/kg, Fosmetpantotenate Mean Conc., fosmetpantotenate 100 mg/kg oral, 4 hr, mean",2.04 nM
same,concentration at 0.033 h,"[2]; male, Sprague-Dawley, rat, in vivo, 300 mg/kg, Fosmetpantotenate Conc., fosmetpantotenate 300 mg/kg oral, 0.033 hr, individual animals",3.9 nM
same,concentration at 1 h,"[2]; male, Sprague-Dawley, rat, in vivo, 300 mg/kg, Fosmetpantotenate Conc., fosmetpantotenate 300 mg/kg oral, 1 hr, individual animals",6.98 nM
same,concentration at 2 h,"[2]; male, Sprague-Dawley, rat, in vivo, 300 mg/kg, Fosmetpantotenate Conc., fosmetpantotenate 300 mg/kg oral, 2 hr, individual animals",3.41 nM
same,concentration at 4 h,"[2]; male, Sprague-Dawley, rat, in vivo, 300 mg/kg, Fosmetpantotenate Conc., fosmetpantotenate 300 mg/kg oral, 4 hr, individual animals",3.69 nM
same,concentration at 0.033 h,"[2]; male, Sprague-Dawley, rat, in vivo, 300 mg/kg, Fosmetpantotenate Mean Conc., fosmetpantotenate 300 mg/kg oral, 0.033 hr, mean",4.03 nM
same,concentration at 0.167 h,"[2]; male, Sprague-Dawley, rat, in vivo, 300 mg/kg, Fosmetpantotenate Mean Conc., fosmetpantotenate 300 mg/kg oral, 0.167 hr, mean",18.1 nM
same,concentration at 0.33 h,"[2]; male, Sprague-Dawley, rat, in vivo, 300 mg/kg, Fosmetpantotenate Mean Conc., fosmetpantotenate 300 mg/kg oral, 0.33 hr, mean",36.3 nM
same,concentration at 0.5 h,"[2]; male, Sprague-Dawley, rat, in vivo, 300 mg/kg, Fosmetpantotenate Mean Conc., fosmetpantotenate 300 mg/kg oral, 0.5 hr, mean",290 nM
same,concentration at 1 h,"[2]; male, Sprague-Dawley, rat, in vivo, 300 mg/kg, Fosmetpantotenate Mean Conc., fosmetpantotenate 300 mg/kg oral, 1 hr, mean",6.98 nM
same,concentration at 2 h,"[2]; male, Sprague-Dawley, rat, in vivo, 300 mg/kg, Fosmetpantotenate Mean Conc., fosmetpantotenate 300 mg/kg oral, 2 hr, mean",3.41 nM
same,concentration at 4 h,"[2]; male, Sprague-Dawley, rat, in vivo, 300 mg/kg, Fosmetpantotenate Mean Conc., fosmetpantotenate 300 mg/kg oral, 4 hr, mean",3.69 nM
same,concentration at 2 hr,"[2]; male, Sprague-Dawley, rat, in vivo, 700 mg/kg, Fosmetpantotenate Conc., fosmetpantotenate 700 mg/kg oral, 2 hr, individual animals",663 nM
same,concentration at 0.033 h,"[2]; male, Sprague-Dawley, rat, in vivo, 700 mg/kg, Fosmetpantotenate Mean Conc., fosmetpantotenate 700 mg/kg oral, 0.033 hr, mean",114 nM
same,concentration at 0.083 h,"[2]; male, Sprague-Dawley, rat, in vivo, 700 mg/kg, Fosmetpantotenate Mean Conc., fosmetpantotenate 700 mg/kg oral, 0.083 hr, mean",260 nM
same,concentration at 0.167 hr,"[2]; male, Sprague-Dawley, rat, in vivo, 700 mg/kg, Fosmetpantotenate Mean Conc., fosmetpantotenate 700 mg/kg oral, 0.167 hr, mean",138 nM
same,concentration at 0.33 hr,"[2]; male, Sprague-Dawley, rat, in vivo, 700 mg/kg, Fosmetpantotenate Mean Conc., fosmetpantotenate 700 mg/kg oral, 0.33 hr, mean",1290 nM
same,concentration at 0.5 hr,"[2]; male, Sprague-Dawley, rat, in vivo, 700 mg/kg, Fosmetpantotenate Mean Conc., fosmetpantotenate 700 mg/kg oral, 0.5 hr, mean",222 nM
same,concentration at 1 hr,"[2]; male, Sprague-Dawley, rat, in vivo, 700 mg/kg, Fosmetpantotenate Mean Conc., fosmetpantotenate 700 mg/kg oral, 1 hr, mean",117 nM
same,concentration at 2 hr,"[2]; male, Sprague-Dawley, rat, in vivo, 700 mg/kg, Fosmetpantotenate Mean Conc., fosmetpantotenate 700 mg/kg oral, 2 hr, mean",849 nM
same,concentration at 4 h,"[2]; male, Sprague-Dawley, rat, in vivo, 700 mg/kg, Fosmetpantotenate Mean Conc., fosmetpantotenate 700 mg/kg oral, 4 hr, mean",226 nM
same,half-life at 1 μM,"[3]; pH 7.4, 1 μM, NADPH",11 min
same,microsomal CLint at 1 μM,"[3]; pH 7.4, read-out: intrinsic clearance",263 µL/min/mg
